According to ChEMBL document CHEMBL5356947, “Mitochondria-targeted biotin-conjugated BODIPYs for cancer imaging and therapy” (RSC Med Chem, 2023):
pIC50: −log10 of the molar value. Blank lines part the entries; values can stand above or below the compound they belong to.

What was measured:
MDA-MB-231 [1] = assay: Induction of apoptosis in human MDA-MB-231 cells assessed as early apoptotic cells at 15 nM incubated for 24 hrs under dark condition by Annexin V-FITC/PI staining based flow cytometric analysis relative to control; assay type: functional
MCF7 = assay: Photocytotoxicity against human MCF7 cells assessed as inhibition of cell growth incubated for 24 hrs by MTT assay; assay type: functional, cell-based; conditions: MCF7, 24 h
MDA-MB-231 [2] = assay: Cell cycle arrest in human MDA-MB-231 cells assessed as accumulation of cells at G2/M phase at 30 nM preincubated with compound for 15 mins followed by light irradiation and measured after 3 to 24 hrs by RNase A/PI staining based flow cytometric analysis (reference value: 12.9%); assay type: functional; conditions: time 195-1455 min
MDA-MB-231 [3] = assay: Induction of apoptosis in human MDA-MB-231 cells assessed as late apoptotic cells at 15 nM incubated for 24 hrs under dark condition by Annexin V-FITC/PI staining based flow cytometric analysis relative to control; assay type: functional
MDA-MB-231 [4] = assay: Cell cycle arrest in human MDA-MB-231 cells assessed as accumulation of cells at G2/M phase at 15 nM preincubated with compound for 15 mins followed by light irradiation and measured after 3 to 24 hrs by RNase A/PI staining based flow cytometric analysis (reference value: 12.9%); assay type: functional; conditions: time 195-1455 min
[5] = Absorption property of the compound by UV-vis spectrophotometer; assay type: physicochemical
MDA-MB-231 [6] = assay: Induction of oxidative stress on human MDA-MB-231 cells assessed as increase in ROS population at 30 nM preincubated with compound for 24 hrs followed by 540 nm light irradiation for 1 hrs by CM-H2DCFDA staining based analysis (reference value: 1.6%); assay type: functional; conditions: time 25 hrs
MDA-MB-231 [7] = assay: Induction of apoptosis in human MDA-MB-231 cells assessed as necrotic cells at 15 nM preincubated with compound for 24 hrs followed by 540 nm light irradiation for 1 hrs by Annexin V-FITC/PI staining based flow cytometric analysis (reference value: 2.7%); assay type: functional; conditions: time 25 hrs
MDA-MB-231 [8] = assay: Induction of oxidative stress on human MDA-MB-231 cells assessed as increase in ROS population at 15 nM preincubated with compound for 24 hrs followed by 540 nm light irradiation for 1 hrs by CM-H2DCFDA staining based analysis (reference value: 1.6%); assay type: functional; conditions: time 25 hrs
HT-29 = assay: Photocytotoxicity against human HT-29 cells assessed as inhibition of cell growth incubated for 24 hrs by MTT assay; assay type: functional, cell-based; conditions: HT-29, 24 h
MDA-MB-231 [9] = assay: Cell cycle arrest in human MDA-MB-231 cells assessed as accumulation of cells at S phase incubated for 24 hrs by RNase A/PI staining based flow cytometric analysis relative to control; assay type: functional
MDA-MB-231 [10] = assay: Cell cycle arrest in human MDA-MB-231 cells assessed as accumulation of cells at G2/M phase incubated for 24 hrs by RNase A/PI staining based flow cytometric analysis relative to control; assay type: functional
MDA-MB-231 [11] = assay: Induction of apoptosis in human MDA-MB-231 cells assessed as late apoptotic cells at 15 nM preincubated with compound for 24 hrs followed by 540 nm light irradiation for 1 hrs by Annexin V-FITC/PI staining based flow cytometric analysis (reference value: 17.1%); assay type: functional; conditions: time 25 hrs
HCT-116 = assay: Photocytotoxicity against human HCT-116 cells assessed as inhibition of cell growth incubated for 24 hrs by MTT assay; assay type: functional, cell-based; conditions: HCT-116, 24 h
MDA-MB-231 [12] = assay: Photocytotoxicity against human MDA-MB-231 cells assessed as inhibition of cell growth incubated for 24 hrs by MTT assay; assay type: functional, cell-based; conditions: MDA-MB-231, 24 h
MDA-MB-231 [13] = assay: Cell cycle arrest in human MDA-MB-231 cells assessed as accumulation of cells at S phase at 30 nM preincubated with compound for 15 mins followed by light irradiation and measured after 3 to 24 hrs by RNase A/PI staining based flow cytometric analysis (reference value: 16.4%); assay type: functional; conditions: time 195-1455 min
[14] = Absorption property of the compound assessed as decay lifetime; assay type: physicochemical
[15] = Fluorescence property of the compound assessed as fluorescence quantum yield in EtOH; assay type: physicochemical
MDA-MB-231 [16] = assay: Cell cycle arrest in human MDA-MB-231 cells assessed as accumulation of cells at G1 phase at 30 nM preincubated with compound for 15 mins followed by light irradiation and measured after 3 to 24 hrs by RNase A/PI staining based flow cytometric analysis (reference value: 65.7%); assay type: functional; conditions: time 195-1455 min
[17] = Emission property of the compound by fluorescence spectrophotometer analysis; assay type: physicochemical
MDA-MB-231 [18] = assay: Induction of apoptosis in human MDA-MB-231 cells assessed as late apoptotic cells at 30 nM preincubated with compound for 24 hrs followed by 540 nm light irradiation for 1 hrs by Annexin V-FITC/PI staining based flow cytometric analysis (reference value: 17.1%); assay type: functional; conditions: time 25 hrs
MDA-MB-231 [19] = assay: Induction of oxidative stress on human MDA-MB-231 cells assessed as increase in ROS population incubated for 24 hrs under dark condition by CM-H2DCFDA staining based analysis relative to control; assay type: functional
[20] = Absorption property of the compound assessed as molar extinction co-effecient by UV-vis spectrophotometer; assay type: physicochemical
MDA-MB-231 [21] = assay: Cell cycle arrest in human MDA-MB-231 cells assessed as accumulation of cells at G1 phase at 15 nM preincubated with compound for 15 mins followed by light irradiation and measured after 3 to 24 hrs by RNase A/PI staining based flow cytometric analysis (reference value: 65.7%); assay type: functional; conditions: time 195-1455 min
MDA-MB-231 [22] = assay: Induction of apoptosis in human MDA-MB-231 cells assessed as early apoptotic cells at 30 nM preincubated with compound for 24 hrs followed by 540 nm light irradiation for 1 hrs by Annexin V-FITC/PI staining based flow cytometric analysis (reference value: 19.2%); assay type: functional; conditions: time 25 hrs
[23] = Absorption property of the compound assessed as triplet quantum yield by UV-vis spectrophotometer; assay type: physicochemical
[24] = Photosensitizing ability of the compound in MeOH assessed as singlet oxygen generation at 408 nm measured upto 120 sec by DPBF based assay; assay type: functional
MDA-MB-231 [25] = assay: Cell cycle arrest in human MDA-MB-231 cells assessed as accumulation of cells at G1 phase incubated for 24 hrs by RNase A/PI staining based flow cytometric analysis relative to control; assay type: functional
MDA-MB-231 [26] = assay: Induction of apoptosis in human MDA-MB-231 cells assessed as necrotic cells at 15 nM incubated for 24 hrs under dark condition by Annexin V-FITC/PI staining based flow cytometric analysis relative to control; assay type: functional
[27] = Drug localization in mitochondria of human MDA-MB-231 cells incubated for 1 hrs by Mitotracker deep red/Hoechst staining based confocal microscopic analysis; assay type: ADME; conditions: mda-mb-231, 1 h
MDA-MB-231 [28] = assay: Induction of apoptosis in human MDA-MB-231 cells assessed as necrotic cells at 30 nM preincubated with compound for 24 hrs followed by 540 nm light irradiation for 1 hrs by Annexin V-FITC/PI staining based flow cytometric analysis (reference value: 2.7%); assay type: functional; conditions: time 25 hrs
[29] = Photocytotoxicity against human MCF-10A cells assessed as inhibition of cell growth incubated for 24 hrs by MTT assay; assay type: toxicity, cell-based
MDA-MB-231 [30] = assay: Induction of apoptosis in human MDA-MB-231 cells assessed as early apoptotic cells at 15 nM preincubated with compound for 24 hrs followed by 540 nm light irradiation for 1 hrs by Annexin V-FITC/PI staining based flow cytometric analysis (reference value: 19.2%); assay type: functional; conditions: time 25 hrs
MDA-MB-231 [31] = assay: Cell cycle arrest in human MDA-MB-231 cells assessed as accumulation of cells at S phase at 15 nM preincubated with compound for 15 mins followed by light irradiation and measured after 3 to 24 hrs by RNase A/PI staining based flow cytometric analysis (reference value: 16.4%); assay type: functional; conditions: time 195-1455 min

Activity [5]: 534 nm
Time [14]: 3.6 microsec
Activity [15]: 0.032
Activity [17]: 551 nm
Activity [20]: 123000 M⁻¹ cm⁻¹
Activity [23]: 0.4
Drug uptake [27]: Active
Structure (SMILES): CC1=C(I)C(C)=[N+]2C1=C(c1ccc(OCc3cn(CCOCCOCCOCCNC(=O)CCCCC4SCC5NC(=O)NC54)nn3)cc1)c1c(C)c(I)c(C)n1[B-]2(F)F (stereo unspecified)
Activity (MDA-MB-231 [1]): 13%
pIC50 (MCF7): 7.66
Activity (MDA-MB-231 [2]): 22.9%
Activity (MDA-MB-231 [3]): 10.4%
Activity (MDA-MB-231 [4]): 21.8%
Activity (MDA-MB-231 [6]): 62.3%
Activity (MDA-MB-231 [7]): 7.3%
Activity (MDA-MB-231 [8]): 41.6%
pIC50 (HT-29): 7.56
Activity (MDA-MB-231 [9]): 17.7%
Activity (MDA-MB-231 [10]): 13.7%
Activity (MDA-MB-231 [11]): 30%
pIC50 (HCT-116): 7.65
pIC50 (MDA-MB-231 [12]): 7.73
Activity (MDA-MB-231 [13]): 14.7%
Activity (MDA-MB-231 [16]): 62.2%
Activity (MDA-MB-231 [18]): 43%
Activity (MDA-MB-231 [19]): 14.2%
Activity (MDA-MB-231 [21]): 59%
Activity (MDA-MB-231 [22]): 8.3%
Activity [24]: 0.33
Activity (MDA-MB-231 [25]): 64.8%
Activity (MDA-MB-231 [26]): 3%
Activity (MDA-MB-231 [28]): 21.4%
IC50 at 24 h [29]: 0.196 µM
Activity (MDA-MB-231 [30]): 22.4%
Activity (MDA-MB-231 [31]): 15.5%

Activity [15]: 0.95
Structure (SMILES): CC/N=c1/cc2oc3cc(NCC)c(C)cc3c(-c3ccccc3C(=O)OCC)c-2cc1C.Cl

Structure (SMILES): O=C1OC2(c3cc(I)c(O)c(I)c3Oc3c2cc(I)c(O)c3I)c2c(Cl)c(Cl)c(Cl)c(Cl)c21
Activity [24]: 0.75
